Laboratory results as given in article PMC4266338 (ACS Medicinal Chemistry Letters, 2014).
Blank lines part the entries; values can stand above or below the compound they belong to.

Experiments:
[1] = tested on: CHOP; test: CHO-CHOP-luciferase reporter assay; type: cell-based, Chinese hamster; conditions: for UPR CHOP AC50 ± SEM: CHO-CHOP-luciferase cells, averaged from n ≥ 4 experiments
[2] = tested on: Chop knockout murine embryonic fibroblast (MEF) cells; test: MEF proliferation assay, Chop knockout; type: cell-based, mouse; conditions: concentrations up to 20 μM, 24 h, Figure S1
[3] = Mouse pharmacokinetics IV and IP; conditions: male CD-1 mice, IV 2 mg/kg single dose
[4] = tested on: human tumor cell line panel (NCI-60); test: NCI-60 human tumor cell line panel; type: cell-based; conditions: colon, melanoma, and renal cancer cell lines
[5] = tested on: HN6; test: OSCC proliferation assay HN6; type: cell-based, human; conditions: HN6, 24 h
[6] = Hepatic microsome stability, mouse; type: in vitro ADME; conditions: 37°C, after 1 hr
[7] = tested on: H460/T800; test: OSCC proliferation assay H460/T800; type: cell-based, human; conditions: H460/T800, 24 h
[8] = PAMPA permeability; type: in vitro ADME; conditions: donor pH 5.0, 6.2, and 7.4
[9] = tested on: A253; test: OSCC proliferation assay A253; type: cell-based, human; conditions: A253, 24 h
[10] = Hepatic microsome stability, human; type: in vitro ADME; conditions: 37°C, after 1 hr
[11] = Aqueous solubility; type: physicochemical; conditions: through a biologically relevant pH range
[12] = Chemical stability toward thiol nucleophiles; type: physicochemical; conditions: 10 μM in PBS pH 7.4, 1% DMSO, 8 h, room temperature
[13] = tested on: HN30; test: OSCC proliferation assay HN30; type: cell-based; conditions: Homo sapiens, 24 h, read-out: potency, dose–response proliferation assay

Compound: O=C(Nc1ccc(S(=O)(=O)N2CCNCC2)cc1)c1ccc([N+](=O)[O-])o1 [Compound 8]
loss of activity ([1]; CHOP activation relative to hit 3): ~14 fold

Compound: O=C(Nc1ccc(S(=O)(=O)N2CCC(O)CC2)cc1)c1ccc([N+](=O)[O-])o1 [Compound 9]
UPR CHOP AC50 ± SEM [1]: on par with activity observed with hit 3

Compound: O=C(Nc1ccc(S(=O)(=O)N2CCC(Cl)CC2)cc1)c1ccc([N+](=O)[O-])o1 [Compound 12]
effect on Chop-null MEF cells [2]: unaffected
IV dose cleared from circulation within [3]: ≤ 30 min
growth inhibition potency [4]: low micromolar potency
sensitivity, dose–response proliferation assay [5]: more resistant
Hepatic Microsome Stability percent remaining [6]: almost completely metabolized
sensitivity, dose–response proliferation assay [7]: more resistant
PAMPA permeability in words [8]: good permeability
sensitivity, dose–response proliferation assay [9]: more resistant
Hepatic Microsome Stability percent remaining [10]: almost completely metabolized
Aqueous stability in PBS and pION buffer [11]: 8.7–9.7 μM
compound remaining with dithiothreitol (DTT) ([12]; 5-fold excess DTT): 100%
compound remaining with glutathione (GSH) ([12]; 5-fold excess GSH): 100%
EC50 [13]: 9 ± 1.1 µM

Compound: O=C(Nc1ccc(S(=O)(=O)N2CCOCC2)cc1)c1ccco1 [Compound 27]
UPR CHOP AC50 ± SEM [1]: loss of activity

More lines, now with the values ahead:

UPR CHOP AC50 ± SEM [1]: loss of activity
Compound: Cc1ccc(C(=O)Nc2ccc(S(=O)(=O)N3CCOCC3)cc2)o1 [Compound 28]

UPR CHOP AC50 ± SEM [1]: loss of activity
Compound: O=C(Nc1ccc(S(=O)(=O)N2CCOCC2)cc1)c1ccc(Br)o1 [Compound 29]

UPR CHOP AC50 ± SEM [1]: loss of activity
Compound: CC1(C)CCN(S(=O)(=O)c2ccc(NC(=O)c3ccc(C(F)(F)F)o3)cc2)CC1 [Compound 30]
